Laboratory results as given in ChEMBL document CHEMBL4483862, “Open-source discovery of chemical leads for next-generation chemoprotective antimalarials” (2018).
pIC50: −log10 of the molar value.

System: Plasmodium berghei
Assay: Luciferase/luciferin-expressing antifolate-resistant parasites were used to infect a culture of HepG2 cells that were pre-incubated with compounds. Infected hepatocytes emit light due to the luciferase reaction. Assay results are presented as the percent inhibition of light emission compared to control. […]
Assay type: functional
Conditions: sporozoite; for IC90: read-out: LUCIFERASE INFECTION ASSAY - IC90
[1] = read-out: LUCIFERASE INFECTION ASSAY - IC50

With `C=C(C)C(=O)Oc1cccc(Oc2c(F)c(F)c(-c3c(F)c(F)c(Oc4cccc(OC(=O)C(=C)C)c4)c(F)c3F)c(F)c2F)c1` the pIC50 (FFLUC_HILL_SLOPE 16.5, FFLUC_R_SQUARED 0.83, read-out: LUCIFERASE INFECTION ASSAY - IC50) was less than 5.00 and the IC90 was greater than 10 µM.

Work on `CN(CC(=O)Nc1ccc(F)c(F)c1F)c1cnccn1` yielded a pIC50 [1] of less than 5.00 and an IC90 greater than 10 µM.

Molecule `CNc1ccccc1C(=O)N/N=C/c1cc(Cl)cc(Cl)c1O` has a pIC50 (HEPG2TOX_HILL_SLOPE 2.97, HEPG2TOX_R_SQUARED 0.147, PBLUC_HILL_SLOPE 9.98, PBLUC_R_SQUARED 0.459, read-out: LUCIFERASE INFECTION ASSAY - IC50) of less than 5.01 and an IC90 greater than 9.76 µM.

Molecule `Cc1onc(-c2ccc(Cl)cc2Cl)c1-c1csc(Nc2c(Cl)cccc2Cl)n1` has a pIC50 (PBLUC_HILL_SLOPE 16.2, PBLUC_R_SQUARED 0.0753, read-out: LUCIFERASE INFECTION ASSAY - IC50) of 5.19 and an IC90 greater than 7 µM.

`Cc1cc(C(=O)COC(=O)c2ccccc2OCC(=O)Nc2cccc(C(F)(F)F)c2)c(C)n1CC1CCCO1` (stereo unspecified) was tested, and the pIC50 [1] was less than 5.00 and the IC90 was greater than 10 µM.

In the case of `CC12CC3CC(C1)CC(c1ccc(O)cc1)(C3)C2`, the pIC50 [1] was less than 5.00 and the IC90 was greater than 10 µM.

`COc1ccc(CCN2C(=O)C=CC2=O)cc1OC` gave a pIC50 (FFLUC_HILL_SLOPE 0.51, FFLUC_R_SQUARED 0.0256, HEPG2TOX_HILL_SLOPE 14.8, HEPG2TOX_R_SQUARED 0.93, PBLUC_HILL_SLOPE 12.3, PBLUC_R_SQUARED 0.48, read-out: LUCIFERASE INFECTION ASSAY - IC50) of 5.35 and an IC90 of 5.29 µM.

Work on `CN1CCN(C(=O)c2ccc(-c3cnc4cnc(/C=C/c5ccccc5)cn34)cc2)CC1` yielded a pIC50 (HEPG2TOX_HILL_SLOPE 0.285, HEPG2TOX_R_SQUARED 0.311, PBLUC_HILL_SLOPE 1.14, PBLUC_R_SQUARED 0.7, read-out: LUCIFERASE INFECTION ASSAY - IC50) of 5.51 and an IC90 greater than 7.79 µM.

For `CC(Cc1cccs1)N(Cc1ccc(Cl)cc1)C(=O)c1ccc(Cl)c(S(=O)(=O)N2CCCCC2)c1` (stereo unspecified), the pIC50 (FFLUC_HILL_SLOPE 17, FFLUC_R_SQUARED 0.198, read-out: LUCIFERASE INFECTION ASSAY - IC50) was less than 5.00 and the IC90 was greater than 10 µM.

`CCN(CC)c1ccc(/C=N/NC(=S)NC(C)C)c(O)c1` gave a pIC50 (PBLUC_HILL_SLOPE 3.12, PBLUC_R_SQUARED 0.566, read-out: LUCIFERASE INFECTION ASSAY - IC50) of 5.14 and an IC90 greater than 10 µM.

In the case of `COc1cc(Nc2ncc3c(n2)CCN(C(=O)Nc2ccc(F)c(Cl)c2)C3)cc(OC)c1OC`, the pIC50 (HEPG2TOX_HILL_SLOPE 3.56, HEPG2TOX_R_SQUARED 0.576, PBLUC_HILL_SLOPE 6.46, PBLUC_R_SQUARED 0.101, read-out: LUCIFERASE INFECTION ASSAY - IC50) was 5.30 and the IC90 was greater than 6.76 µM.

`CSc1nccc(-c2ccc(S(=O)(=O)n3nc(C)c([N+](=O)[O-])c3C)s2)n1` was tested, and the pIC50 [1] was less than 5.10 and the IC90 was greater than 8.02 µM.

`Cc1ccc(-n2c(SCc3c(-c4ccccc4)nc4sccn34)nnc2-c2ccccc2)cc1C` showed a pIC50 (FFLUC_HILL_SLOPE 2.28, FFLUC_R_SQUARED 0.669, PBLUC_HILL_SLOPE 14.9, PBLUC_R_SQUARED 0.408, read-out: LUCIFERASE INFECTION ASSAY - IC50) of 5.48 and an IC90 of 3.83 µM.

With `N#C/C(=N\Nc1ccc(F)cc1)C(=O)c1ccc(Cl)cc1` the pIC50 [1] was 5.02 and the IC90 was greater than 10.9 µM.

In the case of `NC(Cc1ccc(F)cc1)c1csc(NC(=O)c2ccc(F)c(Cl)c2)n1` (stereo unspecified), the pIC50 (PBLUC_HILL_SLOPE 84.1, PBLUC_R_SQUARED 0.0637, read-out: LUCIFERASE INFECTION ASSAY - IC50) was 5.26 and the IC90 was 5.68 µM.

With `c1ccc(-c2cc3c(NCCCN4CCN(c5ncccn5)CC4)ncnc3s2)cc1` the pIC50 (HEPG2TOX_HILL_SLOPE 0.225, HEPG2TOX_R_SQUARED 0.56, PBLUC_HILL_SLOPE 1.89, PBLUC_R_SQUARED 0.636, read-out: LUCIFERASE INFECTION ASSAY - IC50) was 5.83 and the IC90 was 4.71 µM.

`Cc1csc(C(C#N)C(=O)COC(=O)c2ccccc2SCC(=O)N(C)C)n1` (stereo unspecified) gave a pIC50 [1] of less than 5.00 and an IC90 greater than 10 µM.

`CN(C)CCNC(=O)c1ccc(-c2cc(-c3cc4ccccc4s3)cnc2N)cc1` showed a pIC50 [1] of less than 5.10 and an IC90 greater than 7.92 µM.

For `COc1ccccc1N1CCN(c2ncnc3sc(C)c(-c4ccc(F)cc4)c23)CC1`, the pIC50 (HEPG2TOX_HILL_SLOPE 0.826, HEPG2TOX_R_SQUARED 0.707, read-out: LUCIFERASE INFECTION ASSAY - IC50) was less than 5.00 and the IC90 was greater than 10 µM.

In the case of `Cc1cc(NNC(=O)c2ccccc2Cl)nc2c1c(-c1cccs1)nn2C`, the pIC50 [1] was less than 5.08 and the IC90 was greater than 8.29 µM.

`Cc1cnc(-c2nc(-c3ccccc3)c3n2CCN(Cc2ccc(C4CCCCO4)s2)C3)cn1` (stereo unspecified) was tested, and the pIC50 (PBLUC_HILL_SLOPE 1.74, PBLUC_R_SQUARED 0.822, read-out: LUCIFERASE INFECTION ASSAY - IC50) was 5.44 and the IC90 was greater than 7 µM.

`O=C(NNC(=O)c1csnn1)c1ccc(C(F)(F)F)cc1` was tested, and the pIC50 (PBLUC_HILL_SLOPE 3.95, PBLUC_R_SQUARED 0.658, read-out: LUCIFERASE INFECTION ASSAY - IC50) was 6.16 and the IC90 was 1.19 µM.

`CCCCc1ccc(N(C(=O)Nc2ccc(Cl)cc2)C2=NC(CC)CS2)cc1` (stereo unspecified) showed a pIC50 (PBLUC_HILL_SLOPE 93.6, PBLUC_R_SQUARED 0.111, read-out: LUCIFERASE INFECTION ASSAY - IC50) of 5.00 and an IC90 greater than 10 µM.

`N#Cc1nc(=O)n(-c2ccc(OC(F)(F)F)cc2)c(N)c1/N=C/c1ccc(C(F)(F)F)cc1` gave a pIC50 (FFLUC_HILL_SLOPE 11.8, FFLUC_R_SQUARED 0.146, HEPG2TOX_HILL_SLOPE 2.94, HEPG2TOX_R_SQUARED 0.795, PBLUC_HILL_SLOPE 2.18, PBLUC_R_SQUARED 0.738, read-out: LUCIFERASE INFECTION ASSAY - IC50) of 5.75 and an IC90 of 4.82 µM.

`Cc1ccc(-c2csc3[nH]c(CNC(C)c4ccc5c(c4)CCCC5)nc(=O)c23)s1` (stereo unspecified) gave a pIC50 (FFLUC_HILL_SLOPE 13.5, FFLUC_R_SQUARED 0.414, HEPG2TOX_HILL_SLOPE 0.395, HEPG2TOX_R_SQUARED 0.365, read-out: LUCIFERASE INFECTION ASSAY - IC50) of less than 5.00 and an IC90 greater than 10 µM.

With `Cc1cc(C(=O)Nc2ccc(OCc3ncc(C(F)(F)F)cc3Cl)cc2)no1` the pIC50 (PBLUC_HILL_SLOPE 1.94, PBLUC_R_SQUARED 0.889, read-out: LUCIFERASE INFECTION ASSAY - IC50) was 6.37 and the IC90 was 1.33 µM.

`CC(=O)NC(Cc1c[nH]c2ccccc12)C(=O)NNC(=O)c1ccccc1O` (stereo unspecified) was tested, and the pIC50 [1] was less than 5.00 and the IC90 was greater than 10 µM.

For `COc1ccc(C(=O)/C=C/c2cccc(C#N)c2)cc1CN1CCCC1`, the pIC50 (HEPG2TOX_HILL_SLOPE 11.5, HEPG2TOX_R_SQUARED 0.623, read-out: LUCIFERASE INFECTION ASSAY - IC50) was less than 5.00 and the IC90 was greater than 10 µM.

In the case of `Cc1c(C)c(C)c(CSC2=NCCCN2C2CCCCC2)c(C)c1C`, the pIC50 [1] was less than 5.08 and the IC90 was greater than 8.35 µM.

With `O=C(CN1CCC(c2c[nH]c3ccccc23)CC1)Nc1ccc(Cl)c([N+](=O)[O-])c1` the pIC50 (FFLUC_HILL_SLOPE 16.3, FFLUC_R_SQUARED 0.426, PBLUC_HILL_SLOPE 3.46, PBLUC_R_SQUARED 0.601, read-out: LUCIFERASE INFECTION ASSAY - IC50) was 5.31 and the IC90 was 9.15 µM.

In the case of `COc1cccc(/C=C/C(=O)NC2CCCc3ccccc32)c1OC(F)F` (stereo unspecified), the pIC50 (PBLUC_HILL_SLOPE 2.15, PBLUC_R_SQUARED 0.14, read-out: LUCIFERASE INFECTION ASSAY - IC50) was less than 5.00 and the IC90 was greater than 10 µM.

With `Cc1c(-c2ccc(Cl)c(S(=O)(=O)N(C)c3ccccc3)c2)oc2ccc(F)cc2c1=O` the pIC50 (PBLUC_HILL_SLOPE 9.42, PBLUC_R_SQUARED 0.55, read-out: LUCIFERASE INFECTION ASSAY - IC50) was 5.45 and the IC90 was 4.45 µM.

Work on `Cc1nn2c(SCC(=O)O)cc(C(C)(C)C)nc2c1-c1ccc(Cl)cc1` yielded a pIC50 [1] of less than 5.07 and an IC90 greater than 8.46 µM.

`CNc1snc(C)c1C(=O)OCc1nc(C(C)C)no1` gave a pIC50 [1] of 5.21 and an IC90 of 6.24 µM.

With `Cc1cc(C(=O)COC(=O)c2ccccc2OCc2ccccc2Cl)c(C)n1CC1CCCO1` (stereo unspecified) the pIC50 (HEPG2TOX_HILL_SLOPE 0.0867, HEPG2TOX_R_SQUARED 0.214, read-out: LUCIFERASE INFECTION ASSAY - IC50) was less than 5.00 and the IC90 was greater than 10 µM.

In the case of `NS(=O)(=O)c1ccc(CCNC(=O)COC(=O)c2ccc3[nH]c4c(c3c2)CCCC4)cc1`, the pIC50 [1] was less than 5.00 and the IC90 was greater than 10 µM.

`O=C(CCCSc1nc2ccccc2s1)Nc1ccc(S(=O)(=O)NC2=NCCCCC2)cc1` showed a pIC50 [1] of less than 5.00 and an IC90 greater than 10 µM.

`COc1cc(/C=N/NC(=O)c2cc3c(s2)CCC(C)C3)ccc1OC(=O)c1ccco1` (stereo unspecified) was tested, and the pIC50 [1] was less than 5.00 and the IC90 was greater than 10 µM.

For `CCCN(CCC)c1ccc(/C=C2\C=c3c(O)cccc3=C2O)cc1`, the pIC50 (HEPG2TOX_HILL_SLOPE 2.7, HEPG2TOX_R_SQUARED 0.839, PBLUC_HILL_SLOPE 2.95, PBLUC_R_SQUARED 0.682, read-out: LUCIFERASE INFECTION ASSAY - IC50) was 5.80 and the IC90 was 3.37 µM.

`Oc1cccc(-c2cnc3cnc(/C=C/c4ccccc4)cn23)c1` gave a pIC50 (PBLUC_HILL_SLOPE 3.41, PBLUC_R_SQUARED 0.351, read-out: LUCIFERASE INFECTION ASSAY - IC50) of 5.15 and an IC90 greater than 10.5 µM.

`O=C(NCc1cccs1)C1Cc2c(-c3ccccc3)ccnc2O1` (stereo unspecified) showed a pIC50 (HEPG2TOX_HILL_SLOPE 2.36, HEPG2TOX_R_SQUARED 0.977, PBLUC_HILL_SLOPE 2.08, PBLUC_R_SQUARED 0.632, read-out: LUCIFERASE INFECTION ASSAY - IC50) of 5.64 and an IC90 of 6.65 µM.

With `Cn1c[n+](C2=C(NS(=O)(=O)c3ccc([N+](=O)[O-])cc3)C(=O)c3ccccc3C2=O)c2ccccc21` the pIC50 [1] was 5.60 and the IC90 was 5.03 µM.

With `O=C(NNc1ccc(F)cc1)c1cccc(S(=O)(=O)N2CCc3ccccc3C2)c1` the pIC50 (PBLUC_HILL_SLOPE 14.9, PBLUC_R_SQUARED 0.744, read-out: LUCIFERASE INFECTION ASSAY - IC50) was 5.04 and the IC90 was greater than 10 µM.
